Test results as given in US20170355705A1 (GlaxoSmithKline Intellectual Property (No.2) Limited, priority 2014, published 2017).
Where two headings read alike, the source gives them in different places.

Target: T1, SIRT1 (Homo sapiens, UniProt Q96EB6)
T1 sequence (Q96EB6 1-747): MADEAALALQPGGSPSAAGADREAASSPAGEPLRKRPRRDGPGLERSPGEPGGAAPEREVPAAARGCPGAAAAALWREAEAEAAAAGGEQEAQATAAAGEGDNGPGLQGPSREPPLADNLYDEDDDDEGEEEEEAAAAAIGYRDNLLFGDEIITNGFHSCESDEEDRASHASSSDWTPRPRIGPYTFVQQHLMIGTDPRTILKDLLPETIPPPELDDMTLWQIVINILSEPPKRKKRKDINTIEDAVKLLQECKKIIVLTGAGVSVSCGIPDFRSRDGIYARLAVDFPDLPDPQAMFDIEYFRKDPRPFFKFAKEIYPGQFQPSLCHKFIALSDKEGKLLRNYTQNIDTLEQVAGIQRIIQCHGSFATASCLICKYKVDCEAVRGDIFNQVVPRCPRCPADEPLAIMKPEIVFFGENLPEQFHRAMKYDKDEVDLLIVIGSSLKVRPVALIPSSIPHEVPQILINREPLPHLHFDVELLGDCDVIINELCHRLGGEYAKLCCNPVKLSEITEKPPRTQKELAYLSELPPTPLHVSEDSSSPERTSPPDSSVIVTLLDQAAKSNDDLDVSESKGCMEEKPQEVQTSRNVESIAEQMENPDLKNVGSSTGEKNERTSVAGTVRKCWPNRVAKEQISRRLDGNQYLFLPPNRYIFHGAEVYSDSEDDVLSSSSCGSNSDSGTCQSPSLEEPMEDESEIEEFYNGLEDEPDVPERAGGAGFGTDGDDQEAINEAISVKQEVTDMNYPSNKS
Assay: Trp mass spectrometry assay of SIRT1 activity (EC1.5, percent maximum activation)
Format: biochemical
Method in brief: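 Sirtuin deacetylation was run with purified N-His SIRT1 and the 5TMR Trp peptide across a compound titration, stopped after 25 min by acidification, and analysed by MS for OAADPR. Endpoint lay within the linear range.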

[1] = Trp mass spectrometry assay, EC1.5 = concentration giving 150% activation of SIRT1
[2] = Trp mass spectrometry assay, percent maximum activation of SIRT1
[3] = Trp mass spectrometry assay, 0.5 μM peptide substrate, 120 μM βNAD+, 10 nM SIRT1, 25 minutes at 25° C.

TRP Activity (EC1.5) [1] | TRP MAX RESP (percent maximum fold activation) [2] | Compound | other results
B (EC1.5 1-25 μM) | A (Fold activation ≧150%) | Cc1cc(-c2nc3c(cc2C)N2CC[C@@H](C2)N3C(=O)Nc2cccnc2)ccn1 [Example 17, (4S)-8-methyl-7-(2-methylpyridin-4-yl)-N-(pyridin-3-yl)-3,4-dihydro-1,4-methano pyrido[2,3-b][1,4]diazepine-5(2H)-carboxamide] | –
A (EC1.5<1 μM) | A (Fold activation ≧150%) | Cc1cc(-c2ccc3c(n2)N(C(=O)Nc2cnccn2)[C@H]2CCN3C2)cnc1C [Example 171, (4S)-7-(5,6-dimethylpyridin-3-yl)-N-(pyrazin-2-yl)-3,4-dihydro-1,4-methanopyrido[2,3-b][1,4]diazepine-5(2H)-carboxamide] | –
B (EC1.5 1-25 μM) | A (Fold activation ≧150%) | Cc1ccc(-c2nc3c(cc2C)N2CC[C@@H](C2)N3C(=O)Nc2ccccn2)cn1 [Example 8, (4S)-8-methyl-7-(6-methylpyridin-3-yl)-N-(pyridin-2-yl)-3,4-dihydro-1,4-methanopyrido[2,3-b][1,4]diazepine-5(2H)-carboxamide] | –
B (EC1.5 1-25 μM) | A (Fold activation ≧150%) | Cn1cc(-c2ccc3c(n2)N(C(=O)Nc2cnccn2)[C@H]2CCN3C2)cn1 [Example 155, (4S)-7-(1-methyl-1H-pyrazol-4-yl)-N-(pyrazin-2-yl)-3,4-dihydro-1,4-methanopyrido[2,3-b][1,4]diazepine-5(2H)-carboxamide] | –
A (EC1.5<1 μM) | A (Fold activation ≧150%) | Cc1cc(-c2ccc3c(n2)N(C(=O)Nc2ccc4[nH]ncc4c2)[C@H]2CCN3C2)ccn1 [Example 157, (4S)-N-(1H-indazol-5-yl)-7-(2-methylpyridin-4-yl)-3,4-dihydro-1,4-methanopyrido[2,3-b][1,4]diazepine-5(2H)-carboxamide] | –
B (EC1.5 1-25 μM) | A (Fold activation ≧150%) | Cc1cc(-c2ccc3c(n2)N(C(=O)Nc2cccnn2)[C@H]2CCN3C2)ccn1 [Example 158, (4S)-7-(2-methylpyridin-4-yl)-N-(pyridazin-3-yl)-3,4-dihydro-1,4-methanopyrido[2,3-b][1,4]diazepine-5(2H)-carboxamide] | –
B (EC1.5 1-25 μM) | A (Fold activation ≧150%) | Cc1cc(-c2ccc3c(n2)N(C(=O)Nc2cnccn2)C2CCN3C2)ccn1 (stereo in doubt) [Example 149, (4R)-7-(2-methylpyridin-4-yl)-N-(pyrazin-2-yl)-3,4-dihydro-1,4-methanopyrido[2,3-b][1,4]diazepine-5(2H)-carboxamide] | –
C (EC1.5>25 μM) | B (Fold Activation <150%) | Cc1cc(-c2ccc3c(n2)N(C(=O)N[C@H](C)c2ccccn2)[C@H]2CCN3C2)ccn1 [Example 169, (4S)-7-(2-methylpyridin-4-yl)-N-((R)-1-(pyridin-2-yl)ethyl)-3,4-dihydro-1,4-methanopyrido[2,3-b][1,4]diazepine-5(2H)-carboxamide] | –
A (EC1.5<1 μM) | A (Fold activation ≧150%) | Cc1cc(-c2ccc3c(n2)N(C(=O)Nc2cc4cn[nH]c4cn2)[C@H]2CCN3C2)ccn1 [Example 130, (4S)-7-(2-methylpyridin-4-yl)-N-(1H-pyrazolo[3,4-c]pyridin-5-yl)-3,4-dihydro-1,4-methanopyrido[2,3-b][1,4]diazepine-5(2H)-carboxamide] | –

Continued, compound first:

Compound | TRP Activity (EC1.5) [1] | TRP MAX RESP (percent maximum fold activation) [2] | other results
Cc1ccc(-c2nc3c(cc2Cl)N2CC[C@@H](C2)N3C(=O)Nc2cccnc2)cn1 [Example 3, (4S)-8-chloro-7-(6-methylpyridin-3-yl)-N-(pyridin-3-yl)-3,4-dihydro-1,4-methanopyrido[2,3-b][1,4]diazepine-5(2H)-carboxamide] | – | – | TRP Activity (EC1.5): B (key: A: EC1.5<1 μM; B: EC1.5 1-25 μM; EC1.5>25 μM); TRP MAX RESP (percent maximum fold activation): A (key: A: Fold activation ≧150%; B: Fold Activation <150%)
Cc1ccc(-c2nc3c(cc2F)N2CC[C@@H](C2)N3C(=O)Nc2ccccn2)cn1 [Example 5, (4S)-8-fluoro-7-(6-methylpyridin-3-yl)-N-(pyridin-2-yl)-3,4-dihydro-1,4-methanopyrido[2,3-b][1,4]diazepine-5(2H)-carboxamide] | B (EC1.5 1-25 μM) | A (Fold activation ≧150%) | –
Cl.O=C(Nc1ccnc(OC[C@@H](O)CO)n1)N1c2nc(-c3cccc(C(F)(F)F)c3)c(Cl)cc2N2CC[C@H]1C2 [Example 28, (4S)-8-chloro-N-(2-((S)-2,3-dihydroxypropoxy)pyrimidin-4-yl)-7-(3-(trifluoromethyl)phenyl)-3,4-dihydro-1,4-methanopyrido[2,3-b][1,4]diazepine-5(2H)-carboxamide, Hydrochloride] | A (EC1.5<1 μM) | A (Fold activation ≧150%) | –
C[C@H]1CN(c2ccc3c(n2)N(C(=O)Nc2cnccn2)[C@H]2CCN3C2)CCO1 [Example 125, (4S)-7-((S)-2-methylmorpholino)-N-(pyrazin-2-yl)-3,4-dihydro-1,4-methano pyrido[2,3-b][1,4]diazepine-5(2H)-carboxamide] | – | A (Fold activation ≧150%) | –
Cc1cc(-c2ccc3c(n2)N(C(=O)N2CCO[C@@H](C)C2)[C@H]2CCN3C2)ccn1.Cl [Example 234, ((S)-2-methylmorpholino)((4S)-7-(2-methylpyridin-4-yl)-3,4-dihydro-1,4-methanopyrido[2,3-b][1,4]diazepin-5(2H)-yl)methanone hydrochloride] | – | – | TRP Activity (EC1.5, concentration of test compound that results in 150% activation of SIRT1) [3]: C (EC1.5>25 μM); TRP MAX RESP (percent maximum fold activation) [3]: B (Fold Activation <150%)
O=C(Nc1cccc(OC[C@@H](O)CO)n1)N1c2nc(-c3cccc(C(F)(F)F)c3)c(Cl)cc2N2CC[C@H]1C2 [Example 71, (4S)-8-chloro-N-(6-((S)-2,3-dihydroxypropoxy)pyridin-2-yl)-7-(3-(trifluoromethyl)phenyl)-3,4-dihydro-1,4-methanopyrido[2,3-b][1,4]diazepine-5(2H)-carboxamide] | A (EC1.5<1 μM) | A (Fold activation ≧150%) | –
O=C(Nc1cnc(OC[C@H](O)CO)nc1)N1c2nc(-c3cccc(C(F)(F)F)c3)c(Cl)cc2N2CC[C@H]1C2 [Example 66, (4S)-8-chloro-N-(2-((R)-2,3-dihydroxypropoxy)pyrimidin-5-yl)-7-(3-(trifluoromethyl)phenyl)-3,4-dihydro-1,4-methanopyrido[2,3-b][1,4]diazepine-5(2H)-carboxamide] | B (EC1.5 1-25 μM) | A (Fold activation ≧150%) | –
Cc1cc(-c2nc3c(cc2Cl)N2CC[C@@H](C2)N3C(=O)Nc2cccnc2)ccn1 [Example 210, (9S)-4-chloro-5-(2-methylpyridin-4-yl)-N-(pyridin-3-yl)-1,6,8-triazatricyclo[7.2.1.0{2,7}]dodeca-2,4,6-triene-8-carboxamide] | – | – | TRP Activity (EC1.5, concentration of test compound that results in 150% activation of SIRT1) [3]: B (EC1.5 1-25 μM); TRP MAX RESP (percent maximum fold activation) [3]: A (Fold activation ≧150%)
CC[C@@H]1CN(c2ccc3c(n2)N(C(=O)Nc2cnccn2)[C@H]2CCN3C2)CCO1 | – | – | TRP MAX RESP (percent maximum fold activation) [3]: A (Fold activation ≧150%)
O=C(Nc1cncc(OC[C@H](O)CO)n1)N1c2nc(-c3cccc(C(F)(F)F)c3)ccc2N2CC[C@H]1C2 [Example 128, (4S)-N-(6-((R)-2,3-dihydroxypropoxy)pyrazin-2-yl)-7-(3-(trifluoromethyl)phenyl)-3,4-dihydro-1,4-methanopyrido[2,3-b][1,4]diazepine-5(2H)-carboxamide] | A (EC1.5<1 μM) | A (Fold activation ≧150%) | –
Cc1ccc(-c2ccc3c(n2)N(C(=O)NCC(C)(C)C)[C@H]2CCN3C2)cn1 [Example 237, (4S)-7-(6-methylpyridin-3-yl)-N-neopentyl-3,4-dihydro-1,4-methanopyrido[2,3-b][1,4]diazepine-5(2H)-carboxamide] | – | – | TRP Activity (EC1.5, concentration of test compound that results in 150% activation of SIRT1) [3]: C (EC1.5>25 μM); TRP MAX RESP (percent maximum fold activation) [3]: B (Fold Activation <150%)
O=C(Nc1ccnc(OC[C@H](O)CO)c1)N1c2nc(-c3cnn(C4CC4)c3)c(Cl)cc2N2CC[C@H]1C2 [Example 100, (4S)-8-chloro-7-(1-cyclopropyl-1H-pyrazol-4-yl)-N-(2-((R)-2,3-dihydroxypropoxy)pyridin-4-yl)-3,4-dihydro-1,4-methanopyrido[2,3-b][1,4]diazepine-5(2H)-carboxamide] | B (EC1.5 1-25 μM) | A (Fold activation ≧150%) | –
